Results as given in patent US11766470B2, “Manufacture, formulation and dosing of apraglutide” (VectivBio AG, priority 2020, dated 2023).
Square brackets hold non-standard residues; d marks the D form. Peptide text beside a SMILES is read from it. ξ: configuration not given here. Ile(3ξ) = CCC(C)[C@H](N)C(=O)O; Thr(3ξ) = CC(O)[C@H](N)C(=O)O; Nle = CCCC[C@H](N)C(=O)O

Columns and labels:
[1] = system: patients with SBS-IF or SBS-II; settings: in vivo
Experimental: Patients were treated with once weekly 5 mg apraglutide for four weeks. Apraglutide was provided as a freeze-dried powder for reconstitution in sterile water prior to injection, and treatments were administered as subcutaneous injections in the abdominal area. A 72-hour metabolic balance study was performed at baseline and at the end of the treatment period (starting one day after the fourth and last apraglutide injection). Each 72-hour metabolic balance study was performed during a five-day hospital admission. On the day of admission, patients were instructed to create a 24-hour drinking menu based on their habitual oral fluid intake. The drinking menu was to be followed during each balance study. On the second day of admission, just after the patients had urinated and emptied their stoma bags or defecated, the balance study was initiated. […] Daily PS and compliance to the predefined drinking menu was documented during admissions.
First, second and fourth apraglutide injections were performed at the hospital. Safety assessments included observation for injection site reactions, vital signs, blood samples, electrocardiogram (ECG), urinalysis and body weight. They were performed at baseline, during each injection of the trial drug, four days after first injection, at the end of treatment and 4-6 weeks after last dosing at the end of the trial, as shown in Table 20. Liver enzymes were measured prior to each drug administration.

[2] = Plasma concentration of apraglutide (LC-MS/MS) in Phase 2 metabolic balance trial (Example 6); assay type: in vivo, human; settings: 5 mg SC once weekly, SBS patients
Experimental: Blood samples for analysis of the plasma concentration of apraglutide and plasma concentration of fasting L-citrulline, a marker of enterocyte mass, were collected at baseline, during first and second injection (pre-dose and at sequential timepoints), four days after first injection and at the end of treatment. Blood sampling for apraglutide pharmacokinetics was also performed after the fourth and last injection covering 96 hours. […] Blood samples for anti-apraglutide antibodies were collected at baseline, at the end of treatment and at the 4-6 weeks follow-up visit. All eight patients tested negative for anti-apraglutide antibodies at baseline.
Apraglutide and L-citrulline were quantified using a validated LC-MS-based method. For a apraglutide, the analytical method used solid-phase extraction purification of the intact apraglutide molecule and its internal standard. The compounds were identified and quantified using reversed-phase HPLC with MS/MS detection using an AB Sciex API 5000 quadrupole mass spectrometer. For samples below the limit of quantification of 5.00 ng/mL, compounds were identified and quantified using reversed-phase UHPLC with MS/MS detection using an AB Sciex API 5500 quadrupole mass spectrometer. For L-citrulline, the analytical method used protein precipitation extraction of L-citrulline and its internal standard. The compounds were identified and quantified using Hilic HPLC with MS/MS detection using an AB Sciex API 5000 quadrupole mass spectrometer.

Q: Which results are given for `CCCC[C@H](NC(=O)[C@H](CCC(=O)O)NC(=O)[C@H](CC(=O)O)NC(=O)[C@H](CO)NC(=O)[C@H](Cc1ccccc1)NC(=O)[C@H](CO)NC(=O)CNC(=O)[C@H](CC(=O)O)NC(=O)CNC(=O)[C@@H](N)Cc1c[nH]cn1)C(=O)N[C@H](Cc1ccccc1)C(=O)N[C@H](C(=O)N[C@H](C(=O)N[C@@H](CC(C)C)C(=O)N[C@@H](CC(=O)O)C(=O)N[C@@H](CC(C)C)C(=O)N[C@@H](CC(C)C)C(=O)N[C@@H](C)C(=O)N[C@@H](C)C(=O)N[C@@H](CCCNC(=N)N)C(=O)N[C@@H](CC(=O)O)C(=O)N[C@@H](Cc1ccccc1)C(=O)N[C@H](C(=O)N[C@@H](CC(N)=O)C(=O)N[C@@H](Cc1c[nH]c2ccccc12)C(=O)N[C@@H](CC(C)C)C(=O)N[C@H](C(=O)N[C@@H](CCC(N)=O)C(=O)N[C@H](C(=O)N[C@@H](CCCCN)C(=O)N[C@H](C(=O)N[C@H](C(=O)N[C@@H](CC(=O)O)C(N)=O)C(C)O)C(C)CC)C(C)O)C(C)CC)C(C)CC)C(C)CC)C(C)O` (stereo partly drawn) [apraglutide, L-histidyl-glycyl-L-aspartyl-glycyl-L-seryl-L-phenylalanyl-L-seryl-L-aspartyl-L-glutamyl-L-norleucyl-D-phenylalanyl-L-threonyl-Lisoleucyl-L-leucyl-L-aspartyl-L-leucyl-L-leucyl-L-alanyl-L-alanyl-L-arginyl-L-aspartyl-L-phenylalanyl-L-isoleucyl-L-asparaginyl-Ltryptophanyl-L-leucyl-L-isoleucyl-L-glutaminyl-L-threonyl-L-lysyl-L-isoleucyl-L-threonyl-Laspartic acid amide] (H-HGDGSFSDE[Nle][dF][Thr(3ξ)][Ile(3ξ)]LDLLAARDF[Ile(3ξ)]NWL[Ile(3ξ)]Q[Thr(3ξ)]K[Ile(3ξ)][Thr(3ξ)]D-NH2)?
A: Deaths [1]: no deaths occurred; Mean clearance [2]: 0.9 L/h; Cmax ([2]; human, plasma, read-out: Maximum mean plasma concentration): 118 ng/mL; half-life ([2]; human, plasma, read-out: Mean elimination half-life (converted)): 27 h; Tmax ([2]; human, plasma, read-out: Mean time to maximum concentration): 29.5 h
